{
  "source": "paper PMC10399917",
  "about": "(Journal of Molecular Cell Biology, 2023)",
  "data": [
    {"target": "His-SPIKE-S2 (Severe acute respiratory syndrome coronavirus 2, UniProt P0DTC2)", "format": "binding, SARS-CoV-2", "settings": "25 µM", "values": [
      {"smiles": "N#C/C(=C/c1ccc(O)c(O)c1)C(=O)NCc1ccccc1", "note": "[AG-490]", "Thermal shift of His-SPIKE-S2 compared to DMSO control": "did not show a change in the thermal shift curve"},
      {"smiles": "CC(C)c1onc(-c2c(Cl)cccc2Cl)c1COc1ccc(/C=C/c2cccc(C(=O)O)c2)c(Cl)c1", "note": "[GW4064]", "Thermal shift of His-SPIKE-S2 compared to DMSO control": "interfered with the assay"},
      {"smiles": "Cc1cc2c(C(C)C)c(O)c(O)c(C=O)c2c(O)c1-c1c(C)cc2c(C(C)C)c(O)c(O)c(C=O)c2c1O", "note": "[gossypol acetate]", "Thermal shift of His-SPIKE-S2 compared to DMSO control": "showed thermal shift"},
      {"smiles": "O=C(/C=C/c1ccc(O)c(O)c1)OCCc1ccccc1", "note": "[CAPE, caffeic acid phenethyl ester]", "Thermal shift of His-SPIKE-S2 compared to DMSO control": "did not show a change in the thermal shift curve"}
    ]}
  ]
}
